Assay results taken from ChEMBL document CHEMBL1201862, “PubChem BioAssay data set” (2004).
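Dose response: 5 concentrations. Exposure: 48 h. Format: 96-well plates. Endpoint: linear interpolation; highest concentration if not reached. Here, GI50 denotes the concentration required for 50% inhibition of growth.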 The source made the active and inactive calls. Cut-off read from the data, not from the text of the source: active = GI50 up to about 1.1 µM and inactive = higher.

Tests used:
Test in all cases: NCI-60 cell line screen, 48 h
[1] = test system: A498
[2] = test system: A549
[3] = test system: CAKI-1
[4] = test system: CCRF-CEM
[5] = test system: COLO 205
[6] = test system: DLD-1
[7] = test system: DMS-114
[8] = test system: DMS-273
[9] = test system: EKVX
[10] = test system: HCC 2998
[11] = test system: HCT-116
[12] = test system: HCT-15
[13] = test system: HOP-18
[14] = test system: HOP-62
[15] = test system: HOP-92
[16] = test system: HT-29
[17] = test system: IGROV-1
[18] = test system: K562
[19] = test system: KM-20L2
[20] = test system: KM12
[21] = test system: LOX IMVI
[22] = test system: M19-MEL
[23] = test system: MCF7
[24] = test system: MOLT-4
[25] = test system: Malme-3M
[26] = test system: NCI-H226
[27] = test system: NCI-H23
[28] = test system: NCI-H460
[29] = test system: NCI-H522
[30] = test system: NCI/ADR-RES
[31] = test system: OVCAR-3
[32] = test system: OVCAR-4
[33] = test system: OVCAR-5
[34] = test system: OVCAR-8
[35] = test system: RPMI-8226
[36] = test system: RXF 393
[37] = test system: SF-268
[38] = test system: SF-295
[39] = test system: SF-539
[40] = test system: SK-MEL-28
[41] = test system: SK-MEL-2
[42] = test system: SK-MEL-5
[43] = test system: SK-OV-3
[44] = test system: SN12C
[45] = test system: SNB-19
[46] = test system: SNB-75
[47] = test system: SNB-78
[48] = test system: SW-620
[49] = test system: U-251
[50] = test system: UACC-257
[51] = test system: UACC-62
[52] = test system: UO-31
[53] = test system: XF498
[54] = test system: 786-0
[55] = test system: ACHN
[56] = test system: HL-60
[57] = test system: LXFL 529
[58] = test system: M14
[59] = test system: SR
[60] = test system: TK-10

`COc1cc2cc3c4cc(OC)c(OC)cc4cc[n+]3cc2cc1OC` was tested, and the GI50 [1] was > 100 µM (inactive), the GI50 [2] was > 100 µM (inactive) and the GI50 [3] was > 100 µM (inactive). For the same compound, the GI50 [4] was > 100 µM (inactive), the GI50 [5] was 78.2 µM (inactive) and the GI50 [6] was > 100 µM (inactive). For the same compound, the GI50 [7] was 1 µM (active), the GI50 [8] was > 100 µM (inactive) and the GI50 [9] was > 100 µM (inactive). The GI50 [10] was > 30.6 µM (inactive), the GI50 [11] was > 100 µM (inactive) and the GI50 [12] was greater than 100 µM. The GI50 [13] was > 100 µM (inactive), the GI50 [14] was > 100 µM (inactive) and the GI50 [15] was > 100 µM (inactive). The GI50 [16] was > 100 µM (inactive), the GI50 [17] was > 100 µM (inactive) and the GI50 [18] was > 100 µM (inactive). For the same compound, the GI50 [19] was > 57.4 µM (inactive), the GI50 [20] was > 100 µM (inactive) and the GI50 [21] was > 100 µM (inactive). The GI50 [22] was > 100 µM (inactive), the GI50 [23] was > 31.6 µM (inactive) and the GI50 [24] was > 75.5 µM (inactive). The GI50 [25] was > 100 µM (inactive), the GI50 [26] was 71.4 µM (inactive) and the GI50 [27] was > 76.7 µM (inactive). The GI50 [28] was > 100 µM (inactive), the GI50 [29] was 16.4 µM (inactive) and the GI50 [30] was > 100 µM (inactive). For the same compound, the GI50 [31] was > 45.5 µM (inactive), the GI50 [32] was > 100 µM (inactive) and the GI50 [33] was > 100 µM (inactive). The GI50 [34] was > 100 µM (inactive), the GI50 [35] was > 100 µM (inactive) and the GI50 [36] was 46.6 µM (inactive). The GI50 [37] was 0.435 µM (active), the GI50 [38] was > 100 µM (inactive) and the GI50 [39] was > 100 µM (inactive). The GI50 [40] was > 100 µM (inactive), the GI50 [41] was > 100 µM (inactive) and the GI50 [42] was > 100 µM (inactive). For the same compound, the GI50 [43] was > 82.2 µM (inactive), the GI50 [44] was 12.4 µM (inactive) and the GI50 [45] was 15.2 µM (inactive). For the same compound, the GI50 [46] was > 89.3 µM (inactive), the GI50 [47] was > 74.3 µM (inactive) and the GI50 [48] was > 100 µM (inactive). The GI50 [49] was 9.46 µM (inactive), the GI50 [50] was > 100 µM (inactive) and the GI50 [51] was > 100 µM (inactive). For the same compound, the GI50 [52] was > 100 µM (inactive) and the GI50 [53] was > 100 µM (inactive).
With `C/C(=N/NC(=O)C[N+](C)(C)C)C(CN(C)C)C(=O)Nc1ccccc1` (centres undefined) the GI50 [54] was > 100 µM (inactive), the GI50 [1] was > 100 µM (inactive) and the GI50 [2] was > 100 µM (inactive). For the same compound, the GI50 [55] was > 100 µM (inactive), the GI50 [3] was > 100 µM (inactive) and the GI50 [4] was > 100 µM (inactive). For the same compound, the GI50 [5] was > 100 µM (inactive), the GI50 [6] was > 100 µM (inactive) and the GI50 [7] was > 100 µM (inactive). For the same compound, the GI50 [8] was > 100 µM (inactive), the GI50 [9] was > 100 µM (inactive) and the GI50 [10] was 96.8 µM (inactive). For the same compound, the GI50 [11] was > 100 µM (inactive), the GI50 [12] was greater than 100 µM and the GI50 [56] was > 100 µM (inactive). The GI50 [13] was > 100 µM (inactive), the GI50 [14] was > 100 µM (inactive) and the GI50 [16] was > 100 µM (inactive). For the same compound, the GI50 [17] was > 100 µM (inactive), the GI50 [18] was > 100 µM (inactive) and the GI50 [19] was > 100 µM (inactive). For the same compound, the GI50 [20] was > 100 µM (inactive), the GI50 [21] was > 100 µM (inactive) and the GI50 [57] was > 100 µM (inactive). For the same compound, the GI50 [58] was > 100 µM (inactive), the GI50 [22] was > 100 µM (inactive) and the GI50 [24] was > 100 µM (inactive). For the same compound, the GI50 [25] was > 100 µM (inactive), the GI50 [26] was > 100 µM (inactive) and the GI50 [27] was > 100 µM (inactive). The GI50 [28] was > 100 µM (inactive), the GI50 [29] was > 100 µM (inactive) and the GI50 [31] was > 100 µM (inactive). The GI50 [32] was > 100 µM (inactive), the GI50 [33] was > 100 µM (inactive) and the GI50 [34] was > 100 µM (inactive). For the same compound, the GI50 [36] was > 100 µM (inactive), the GI50 [37] was > 100 µM (inactive) and the GI50 [38] was > 100 µM (inactive). For the same compound, the GI50 [39] was > 100 µM (inactive), the GI50 [40] was > 100 µM (inactive) and the GI50 [41] was > 100 µM (inactive). For the same compound, the GI50 [42] was > 100 µM (inactive), the GI50 [43] was > 100 µM (inactive) and the GI50 [44] was > 100 µM (inactive). The GI50 [45] was > 100 µM (inactive), the GI50 [46] was > 100 µM (inactive) and the GI50 [59] was > 100 µM (inactive). The GI50 [48] was > 100 µM (inactive), the GI50 [60] was > 100 µM (inactive) and the GI50 [49] was > 100 µM (inactive). For the same compound, the GI50 [50] was > 100 µM (inactive), the GI50 [51] was > 100 µM (inactive) and the GI50 [52] was > 100 µM (inactive). The GI50 [53] was > 100 µM (inactive).
`CSc1nc(SC)c2cnn(CC3CO3)c2n1` (centres undefined) was tested, and the GI50 [1] was 62.7 µM (inactive), the GI50 [2] was 25.4 µM (inactive) and the GI50 [4] was 12.4 µM (inactive). The GI50 [5] was 18.7 µM (inactive), the GI50 [6] was 22.3 µM (inactive) and the GI50 [7] was 17.4 µM (inactive). For the same compound, the GI50 [8] was 22.8 µM (inactive), the GI50 [9] was 29.3 µM (inactive) and the GI50 [10] was 17.4 µM (inactive). For the same compound, the GI50 [11] was 13.4 µM (inactive), the GI50 [12] was 25.2 µM and the GI50 [56] was 17.5 µM (inactive). The GI50 [13] was 20.9 µM (inactive), the GI50 [14] was 18.7 µM (inactive) and the GI50 [16] was 22 µM (inactive). For the same compound, the GI50 [17] was 19.4 µM (inactive), the GI50 [18] was 26.5 µM (inactive) and the GI50 [19] was 18.2 µM (inactive). For the same compound, the GI50 [20] was 20.3 µM (inactive), the GI50 [21] was 7.59 µM (inactive) and the GI50 [22] was 13.6 µM (inactive). For the same compound, the GI50 [23] was 9.44 µM (inactive), the GI50 [24] was 2.17 µM (inactive) and the GI50 [25] was 23.5 µM (inactive). For the same compound, the GI50 [26] was 17.9 µM (inactive), the GI50 [27] was 18.6 µM (inactive) and the GI50 [28] was 21 µM (inactive). The GI50 [29] was 26.2 µM (inactive), the GI50 [30] was 13.8 µM (inactive) and the GI50 [31] was 25.1 µM (inactive). The GI50 [32] was 20.7 µM (inactive), the GI50 [33] was 17 µM (inactive) and the GI50 [34] was 9.18 µM (inactive). For the same compound, the GI50 [35] was 35.1 µM (inactive), the GI50 [36] was 17.8 µM (inactive) and the GI50 [37] was 9.73 µM (inactive). The GI50 [38] was 24.6 µM (inactive), the GI50 [39] was 19.5 µM (inactive) and the GI50 [40] was 13.9 µM (inactive). For the same compound, the GI50 [41] was 16.7 µM (inactive), the GI50 [42] was 13.3 µM (inactive) and the GI50 [43] was 30.8 µM (inactive). For the same compound, the GI50 [44] was 20.2 µM (inactive), the GI50 [45] was 31.2 µM (inactive) and the GI50 [46] was 17.3 µM (inactive). For the same compound, the GI50 [48] was 11.6 µM (inactive), the GI50 [49] was 19.1 µM (inactive) and the GI50 [50] was 19.2 µM (inactive). For the same compound, the GI50 [51] was 19.2 µM (inactive), the GI50 [52] was 19.5 µM (inactive) and the GI50 [53] was 22.4 µM (inactive).
